Values quoted from earlier work, collected in US20160083345A1, “POLYMORPHIC FORMS OF LOMITAPIDE AND ITS SALTS AND PROCESSES FOR THEIR PREPARATION” (CADILA HEALTHCARE LIMITED, priority 2014, published 2016).
Structures can show the parent of a compound that is named as a salt. Where two headings read alike, the source gives them in different places.

## O=C(NC1CCN(CCCCC2(C(=O)NCC(F)(F)F)c3ccccc3-c3ccccc32)CC1)c1ccccc1-c1ccc(C(F)(F)F)cc1 [Lomitapide mesylate, N-(2,2,2-trifluoroethyl)-9-[4-[4-[[[4′(trifluoromethyl)[1,1′-biphenyl]-2-yl]carbonyl]amino]-1-piperidinyl]butyl]-9H-fluorene-9carboxamide methanesulfonate]
1-octanol
  solubility: sparingly soluble
2-butanol
  solubility: soluble
2-propanol
  solubility: sparingly soluble
acetone
  solubility: freely soluble
acetonitrile
  solubility: soluble
Aqueous solutions of pH 2 to 5
  solubility: slightly soluble
ethanol
  solubility: freely soluble
Ethyl acetate
  solubility: slightly soluble
heptane
  solubility: insoluble
methanol
  solubility: freely soluble
Methylene chloride
  solubility: soluble
